These results are taken from patent US6495715B2, “Calcium channel blockers” (Warner-Lambert Company, priority 1997, dated 2002).

One series has as its target T1, N-type Ca2+ channel (Homo sapiens, UniProt Q00975).
T1 construct: host or cells: IMR-32 cells, differentiated with dibutyryl cAMP and bromodeoxyuridine
Put plainly: Measurement of N-type Ca2+ channel blocking potencies in IMR-32 cells using the fluorescent Ca2+ indicator Indo-1. It is filed as cell-based. Particulars: for IC50: K+-stimulated Ca2+ flux, 5 μM nitrendipine to block L-type channels; for inhibition at 1 µM: 1 μM compound, read-out: IMR 32 % of Blockade @ 1 μM; for inhibition at 1 µM / inhibition at 10 µM: 5 μM nitrendipine; for inhibition at 10 µM: 10 μM compound, read-out: IMR 32 % of Blockade @ 10 μM. Here is the method: Measurement of N-type Ca^2+ Channel Blocking Potencies of Compounds in IMR-32 Cells Using the Fluorescent Ca^2+Indicator Indo-1
IMR-32 cells are a human tumoral cell line of neural origin. […] Calcium flux into these cells may be induced by stimulation with elevated potassium concentrations. The L-channel component of calcium flux may be blocked by adding 5 μM nitrendipine. The remaining component of calcium entry into the IMR-32 cells is due to calcium flux through N-type calcium channels. Intracellular calcium concentrations are measured using the fluorescent calcium indicator Indo-1. The effect of drug concentration on calcium uptake is studied.
The IMR-32 cell line was obtained from the American Type Culture Collection (Rockville, Md.). Cells were grown in Eagle's Minimum Essential Medium with Earle's salts supplemented with 10% fetal bovine serum, 2 mM L-Gln and antibiotic/antimycotic mixture (Gibco). […] After 7 to 13 days of differentiation, cells were detached using 0.5 mM EDTA and loaded with 5 μM Indo-1 acetoxymethyl ester (Molecular Probes, Eugene, Oreg.) at 30° C. for 45 minutes. Loaded cells were washed twice, resuspended (˜10^7 cells/mL) in assay buffer (10 mM HEPES/Tris pH 7.4 in Hank's Balanced Salt Solution without bicarbonate or phenol red containing 0.5% bovine serum albumin) and kept on ice until use. Fluorescence measurements were carried out in a Photon Technology International (PTI, South Brunswick, N.J.) Model RF-F3004 spectrofluorometer with dual emission monochromators using excitation at […] and emission at 400 and 490 nm. The instrument was equipped with a thermostated cuvette holder with stirring capabilities as well as with a computer-controlled pump which allowed for reagent addition during measurement. Instrument control and data collection was done by PTI's OSCAR software running on an IBM compatible computer. Different concentrations of the test compounds (60 μL in dimethyl sulfoxide) were added to 5.94 mL of assay buffer containing approximately 3×10^6 loaded cells, and 5 μM Nitrendipine (in […] EtOH) to block L-type Ca^2+ channels. Samples were incubated for 10 minutes at 30° C. and then aliquoted into three 10×10 mm disposable acrylic cuvettes. Emission signals at 400 and 490 nm were acquired from each cuvette at 30° C. for 50 seconds. At 20 seconds after the start of reading, cells were depolarized by the addition of 160 μL of stimulation solution (1 M KCl, 68 mM CaCl2) to the cuvette via the computer-controlled pump. Ratio of dual emission signals (400 nm/490 nm), which is proportional to intracellular Ca^2+ concentration, was plotted against time, and the difference between maximal response after stimulation and basal value (before stimulation) was determined. Values obtained in this way were plotted as a function of drug concentration. IC50 values of test compounds were calculated by fitting a four-parameter logistic function to the data using the least squares method.
(In general: Calcium flux is commonly read through the fluorescence of an indicator in the cells.)

The test system of the next series is DBA/2 mice. Put plainly: Audiogenic seizure (anticonvulsant) test in DBA/2 mice. Particulars: Mus musculus, intravenous, sound-induced tonic seizures, tested 15 or 45 minutes after injection, read-out: DBA/2 mice % Protection. It is filed as in vivo. Here is the method: In vivo Biological Protocol:
A compound of the present invention was dissolved in water using 10% (weight/volume) Emulphor (GAF Corp., Wayne, N.J.) surfactant. Substances were administered by intravenous injection into the retro-orbital venous sinus. All testing was performed 15 minutes or 45 minutes after drug injection. All the male mice, 3-4 weeks old were obtained from Jackson Laboratories Bar Harbour, Me. Immediately before anticonvulsant testing, mice were placed upon a wire mesh, 4 inches square suspended from a steel rod. The square was slowly inverted through 180 degrees and mice observed for 30 seconds. Any mouse falling from the wire mesh was scored as ataxia.
Mice were placed into an enclosed acrylic plastic chamber (21 cm height, approximately 30 cm diameter) with a high-frequency speaker (4 cm diameter) in the center of the top lid. An audio signal generator (Protek model B-810) was used to produce a continuous sinusoidal tone that was swept linearly in frequency between 8 kHz and 16 kHz once each 10 msec. The average sound pressure level (SPL) during stimulation was approximately 100 dB at the floor of the chamber. Mice were placed within the chamber and allowed to acclimatize for 1 minute. DBA/2 mice in the vehicle-treated group responded to the sound stimulus (applied until tonic extension occurred, or for a maximum of 60 sec) with a characteristic seizure sequence consisting of wild running followed by clonic seizures, and later by tonic extension, and finally by respiratory arrest and death in 80% or more of the mice. In vehicle-treated mice, the entire sequence of seizures to respiratory arrest lasts approximately 15-20 seconds.
The incidence of all the seizure phases in the drug-treated and vehicle-treated mice was recorded, and the occurrence of tonic seizures were used for calculating anticonvulsant ED50 values by probit analysis. Mice were used only once for testing at each time and dose point.

Counter-ions that a name gives are not always drawn.

T1 sequence (Q00975 whole entry): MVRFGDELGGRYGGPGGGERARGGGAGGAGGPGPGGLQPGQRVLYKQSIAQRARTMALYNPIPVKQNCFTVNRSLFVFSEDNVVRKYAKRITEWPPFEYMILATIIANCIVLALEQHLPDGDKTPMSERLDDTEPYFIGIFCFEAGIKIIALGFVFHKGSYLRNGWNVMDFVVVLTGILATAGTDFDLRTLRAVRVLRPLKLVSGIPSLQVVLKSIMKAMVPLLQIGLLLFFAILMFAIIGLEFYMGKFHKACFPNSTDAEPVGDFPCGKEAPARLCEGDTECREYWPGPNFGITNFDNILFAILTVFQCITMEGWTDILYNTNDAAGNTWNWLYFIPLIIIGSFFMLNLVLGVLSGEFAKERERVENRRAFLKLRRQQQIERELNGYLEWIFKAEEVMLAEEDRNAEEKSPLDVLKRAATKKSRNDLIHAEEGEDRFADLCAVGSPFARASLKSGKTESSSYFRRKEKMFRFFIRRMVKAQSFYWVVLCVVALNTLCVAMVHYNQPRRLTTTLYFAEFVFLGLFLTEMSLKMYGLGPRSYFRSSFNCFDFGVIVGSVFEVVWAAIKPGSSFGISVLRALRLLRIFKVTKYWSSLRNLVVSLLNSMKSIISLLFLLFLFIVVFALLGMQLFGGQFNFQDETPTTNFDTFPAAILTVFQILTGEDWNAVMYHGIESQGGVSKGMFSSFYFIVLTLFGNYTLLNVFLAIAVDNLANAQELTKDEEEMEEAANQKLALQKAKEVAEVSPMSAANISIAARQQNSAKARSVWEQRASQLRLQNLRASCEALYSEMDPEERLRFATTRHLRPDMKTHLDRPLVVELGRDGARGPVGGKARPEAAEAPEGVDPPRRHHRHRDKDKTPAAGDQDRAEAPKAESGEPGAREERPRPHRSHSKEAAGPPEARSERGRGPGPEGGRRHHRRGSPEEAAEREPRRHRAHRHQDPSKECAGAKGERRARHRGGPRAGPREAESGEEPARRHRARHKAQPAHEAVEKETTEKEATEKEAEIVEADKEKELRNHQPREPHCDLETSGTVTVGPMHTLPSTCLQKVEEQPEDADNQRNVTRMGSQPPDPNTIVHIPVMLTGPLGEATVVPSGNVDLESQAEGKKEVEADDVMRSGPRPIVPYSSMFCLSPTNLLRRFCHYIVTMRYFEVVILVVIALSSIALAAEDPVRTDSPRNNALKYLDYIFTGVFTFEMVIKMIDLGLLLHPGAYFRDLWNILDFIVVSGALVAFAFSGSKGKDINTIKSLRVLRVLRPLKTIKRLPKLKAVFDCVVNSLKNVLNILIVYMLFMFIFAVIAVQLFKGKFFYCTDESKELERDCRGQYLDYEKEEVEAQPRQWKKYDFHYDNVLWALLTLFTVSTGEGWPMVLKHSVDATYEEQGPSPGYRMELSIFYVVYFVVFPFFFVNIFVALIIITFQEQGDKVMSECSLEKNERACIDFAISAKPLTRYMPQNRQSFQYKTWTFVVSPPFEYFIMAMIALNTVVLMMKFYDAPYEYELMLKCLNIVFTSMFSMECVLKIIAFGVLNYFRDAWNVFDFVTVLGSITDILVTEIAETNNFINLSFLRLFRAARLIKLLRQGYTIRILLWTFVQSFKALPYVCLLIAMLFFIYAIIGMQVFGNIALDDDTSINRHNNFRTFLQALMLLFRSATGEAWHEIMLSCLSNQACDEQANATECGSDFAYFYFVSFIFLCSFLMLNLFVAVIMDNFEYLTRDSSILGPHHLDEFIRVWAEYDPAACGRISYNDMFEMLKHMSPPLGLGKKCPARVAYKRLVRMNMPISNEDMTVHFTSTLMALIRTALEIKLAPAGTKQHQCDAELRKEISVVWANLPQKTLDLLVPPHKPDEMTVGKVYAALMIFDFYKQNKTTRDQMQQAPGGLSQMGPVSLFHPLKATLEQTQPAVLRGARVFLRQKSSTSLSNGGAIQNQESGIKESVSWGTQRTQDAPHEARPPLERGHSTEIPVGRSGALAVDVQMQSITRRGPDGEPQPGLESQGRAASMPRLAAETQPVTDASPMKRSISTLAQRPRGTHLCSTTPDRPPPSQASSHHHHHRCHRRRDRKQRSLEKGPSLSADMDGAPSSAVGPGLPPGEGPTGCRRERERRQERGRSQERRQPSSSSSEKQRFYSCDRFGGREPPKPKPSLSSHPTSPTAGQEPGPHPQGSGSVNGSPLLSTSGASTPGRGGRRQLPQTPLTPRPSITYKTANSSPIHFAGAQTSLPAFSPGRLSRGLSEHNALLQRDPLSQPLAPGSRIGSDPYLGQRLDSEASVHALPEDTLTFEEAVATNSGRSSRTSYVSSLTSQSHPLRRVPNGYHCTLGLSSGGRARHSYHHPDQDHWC
T1 sequence (P54289 25-956 partner limits assumed): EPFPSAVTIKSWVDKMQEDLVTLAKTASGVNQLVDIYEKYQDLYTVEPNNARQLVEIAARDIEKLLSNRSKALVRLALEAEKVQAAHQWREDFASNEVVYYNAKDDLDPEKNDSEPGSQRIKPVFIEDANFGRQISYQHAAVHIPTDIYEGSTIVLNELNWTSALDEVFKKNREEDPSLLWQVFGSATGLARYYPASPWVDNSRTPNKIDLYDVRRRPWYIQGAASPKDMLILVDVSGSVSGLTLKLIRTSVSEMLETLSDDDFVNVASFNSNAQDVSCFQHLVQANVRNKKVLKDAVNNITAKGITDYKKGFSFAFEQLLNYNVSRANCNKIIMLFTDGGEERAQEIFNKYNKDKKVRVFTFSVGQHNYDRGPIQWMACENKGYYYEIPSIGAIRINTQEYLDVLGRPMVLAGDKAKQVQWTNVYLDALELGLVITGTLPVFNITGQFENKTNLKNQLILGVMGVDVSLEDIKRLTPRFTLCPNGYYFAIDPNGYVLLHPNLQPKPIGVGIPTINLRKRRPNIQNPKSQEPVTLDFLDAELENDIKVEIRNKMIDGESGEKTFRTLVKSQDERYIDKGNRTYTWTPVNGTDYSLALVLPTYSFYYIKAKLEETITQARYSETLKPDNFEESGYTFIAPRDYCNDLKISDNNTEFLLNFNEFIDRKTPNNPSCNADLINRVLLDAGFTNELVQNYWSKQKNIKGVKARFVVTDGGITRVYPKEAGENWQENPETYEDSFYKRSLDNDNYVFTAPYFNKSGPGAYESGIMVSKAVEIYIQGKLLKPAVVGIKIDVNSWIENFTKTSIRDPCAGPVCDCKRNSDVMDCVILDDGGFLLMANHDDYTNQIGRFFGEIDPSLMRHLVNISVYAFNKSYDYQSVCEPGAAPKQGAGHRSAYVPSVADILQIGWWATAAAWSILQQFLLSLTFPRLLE
T1 sequence (P54289 957-1103 partner limits assumed): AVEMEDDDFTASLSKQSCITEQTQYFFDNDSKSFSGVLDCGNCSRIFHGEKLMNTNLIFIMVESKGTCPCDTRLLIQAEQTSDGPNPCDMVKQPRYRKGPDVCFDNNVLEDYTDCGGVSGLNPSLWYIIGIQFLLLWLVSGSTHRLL
T1 sequence (Q02641 whole entry partner): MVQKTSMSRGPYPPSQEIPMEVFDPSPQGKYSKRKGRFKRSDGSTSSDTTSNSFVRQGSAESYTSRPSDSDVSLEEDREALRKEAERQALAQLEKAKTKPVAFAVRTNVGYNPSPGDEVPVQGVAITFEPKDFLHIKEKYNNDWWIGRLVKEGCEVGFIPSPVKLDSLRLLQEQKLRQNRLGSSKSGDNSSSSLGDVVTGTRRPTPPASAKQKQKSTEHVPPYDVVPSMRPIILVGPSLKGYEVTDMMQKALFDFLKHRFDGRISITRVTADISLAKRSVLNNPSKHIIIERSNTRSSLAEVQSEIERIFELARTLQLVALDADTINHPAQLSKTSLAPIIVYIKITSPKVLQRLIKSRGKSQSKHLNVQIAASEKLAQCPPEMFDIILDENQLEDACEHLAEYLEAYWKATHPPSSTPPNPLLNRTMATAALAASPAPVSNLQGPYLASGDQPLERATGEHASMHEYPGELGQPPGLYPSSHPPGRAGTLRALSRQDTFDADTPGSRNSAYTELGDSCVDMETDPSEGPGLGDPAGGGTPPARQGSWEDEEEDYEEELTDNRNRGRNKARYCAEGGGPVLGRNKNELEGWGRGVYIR

As a reminder, the IC50 is the concentration that gives 50% inhibition. In general, melting point refers to the temperature of the solid-liquid transition. Molecule `CC(C)=CCN(CCNC(=O)[C@H](CC(C)C)NC(=O)N1CCCCCC1)c1ccc(OCc2ccccc2)cc1` [Example 3, (S)-Azepane-1-carboxylic acid (1-{2-[(4-benzyloxy-phenyl)-(3-methyl-but-2-enyl)-amino]-ethylcarbamoyl}-3-methyl-butyl)-amide] returned a melting point of 71 °C. On N-type Ca2+ channel, this molecule yielded an IC50 of 690 nM.
For the molecule `CC(C)=CCN(c1ccc(OCc2ccccc2)cc1)C1CCN(C(=O)[C@H](CC(C)C)NC(=O)N2CCCCCC2)CC1` (as salt: hydrochloride) [Example 5, (S)-Azepane-1-carboxylic acid (1-{4-[(4-benzyloxy-phenyl)-(3-methyl-but-2-enyl)-amino]-piperidine-1-carbonyl}-3-methyl-butyl)-amide hydrochloride salt], the melting point was in the range of 125 to 126 °C.
For the molecule `CC(C)=CCN(CCCNC(=O)[C@H](CC(C)C)NC(=O)N1CCCCCC1)c1ccc(OCc2ccccc2)cc1` [Example 4, (S)-Azepane-1-carboxylic acid (1-{3-[(4-benzyloxy-phenyl)-(3-methyl-but-2-enyl)-amino]-propylcarbamoyl}-3-methyl-butyl)-amide], the melting point was 48 to 52 °C. Besides, the half-maximal inhibitory concentration (IC50) against N-type Ca2+ channel stood at 750 nM.
On the same counts, the results for `CC(C)C[C@H](NC(=O)N1CCCCCC1)C(=O)NCCN(c1ccc(OCc2ccccc2)cc1)C1C=CCCC1` (stereo partly drawn) [Example 6, (S)-Azepane-1-carboxylic acid (1-{2-[(4-benzyloxy-phenyl)-cyclohex-2-enyl-amino]-ethylcarbamoyl}-3-methyl-butyl)-amide] are 79 to 80 °C and 840 nM.
As for `CC(C)CCN(c1ccc(OCc2ccccc2)cc1)C1CCN(C(=O)[C@@H](N)CC(C)C)CC1` [Example 44, (S)-2-Amino-1-{4-[(4-benzyloxy-phenyl)-(3-methyl-butyl)-amino]-piperidin-1-yl}-4-methyl-pentan-1-one], on N-type Ca2+ channel, the inhibition at 1 µM stood at 50% and the inhibition at 10 µM turned out to be 100%. In addition, the responders at 10 mg/kg in the series with DBA/2 mice amounted to 20%.
As for `CC(C)CCN(c1ccc(NCCC(C)O)cc1)C1CCN(C(=O)[C@H](CC(C)C)NC(=O)N2CCCCCC2)CC1` (stereo partly drawn) [Example 38, (S)-Azepane-1-carboxylic acid (1-{4-[[4-(3-hydroxy-butylamino)-phenyl]-(3-methyl-butyl)-amino]-piperidine-1-carbonyl}-3-methyl-butyl)-amide], the half-maximal inhibitory concentration (IC50) against N-type Ca2+ channel stood at 1800 nM. For the same molecule, in the series on DBA/2 mice, the responders at 30 mg/kg turned out to be 60%.
The corresponding values for `CC(C)=CCN(CC(C)(C)NC(=O)[C@H](CC(C)C)NC(=O)N1CCCCCC1)c1ccc(OCc2ccccc2)cc1` [Example 1] are 260 nM and 60%.
The corresponding values for `CC(C)CCN(c1ccc(NCc2ccc(N(C)C)cc2)cc1)C1CCN(C(=O)[C@H](CC(C)C)NC(=O)N2CCCCCC2)CC1` [Example 41, (S)-Azepane-1-carboxylic acid (1-{4-[[4-(4-dimethylamino-benzylamino)-phenyl]-(3-methyl-butyl)-amino]-piperidine-1-carbonyl}-3-methyl-butyl)-amide] are 490 nM and 20%.
`CC(C)C[C@H](NC(=O)N1CCCCCC1)C(=O)NCCN(Cc1ccccc1)c1ccc(OCc2ccccc2)cc1` [Example 7, (S)-Azepane-1-carboxylic acid (1-{2-[benzyl-(4-benzyloxy-phenyl)-amino]-ethylcarbamoyl}-3-methyl-butyl)-amide] yielded a melting point of 65 to 66 °C. Also, the IC50 on N-type Ca2+ channel stood at 1900 nM.
Turning to `CC(C)=CCN(c1ccc(OCc2ccccc2)cc1)C1CCN(C[C@@H](N)CC(C)C)CC1` [Example 47, (S)-[1-(2-Amino-4-methyl-pentyl)-piperidin-4-yl]-(4-benzyloxy-phenyl)-(3-methyl-but-2-enyl)-amine], on N-type Ca2+ channel, the inhibition at 1 µM worked out at 44% and the inhibition at 10 µM worked out at 100%. Moreover, the responders at 10 mg/kg with DBA/2 mice was 80%.
